Structures are written as SMILES.

Experimental findings from patent publication US7057052B2, “Heterocyclic quinones as pharmaceutical agents” (Duke University, priority 2002, dated 2006) are described below.

This assay has as its target T1, Cdc25B (Homo sapiens, UniProt P30305).
T1 sequence (P30305 1-580): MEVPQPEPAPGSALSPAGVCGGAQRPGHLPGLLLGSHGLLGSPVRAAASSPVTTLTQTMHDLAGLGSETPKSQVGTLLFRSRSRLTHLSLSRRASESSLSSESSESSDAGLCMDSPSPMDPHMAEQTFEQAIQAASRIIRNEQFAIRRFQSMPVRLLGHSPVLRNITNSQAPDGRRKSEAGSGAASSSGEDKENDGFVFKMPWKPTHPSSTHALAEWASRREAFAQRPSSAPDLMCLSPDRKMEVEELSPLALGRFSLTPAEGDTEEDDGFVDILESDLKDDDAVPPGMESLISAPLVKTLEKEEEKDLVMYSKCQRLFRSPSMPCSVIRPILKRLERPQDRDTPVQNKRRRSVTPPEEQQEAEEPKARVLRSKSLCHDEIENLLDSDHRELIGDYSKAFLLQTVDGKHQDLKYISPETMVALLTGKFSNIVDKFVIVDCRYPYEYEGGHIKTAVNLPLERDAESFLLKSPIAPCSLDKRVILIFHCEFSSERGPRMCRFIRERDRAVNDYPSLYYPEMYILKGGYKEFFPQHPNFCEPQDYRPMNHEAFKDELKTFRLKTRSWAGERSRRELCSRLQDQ
The assay is described as follows: Cdc25B phosphatase inhibition (50 μM screen, 3 pt. and 8 pt. IC-50). Type of assay: biochemical. Particulars: Cdc25B; 3 pt. IC-50 using 1, 7 and 50 μM; read-out: IC50 (3 pt). As to the method:
Using procedures known to those skilled in the art, the compounds listed in Table 3 were screened against Cdc25A, Cdc25B, and Cdc25C at 50 μM. […] To analyze these effects further, the compounds were then screened against Cdc25B in a 3 pt. IC-50, using 1, 7 and 50 μM. Several of the compounds were also screened with an 8 pt. IC-50 process, using 0.1–10 μM, allowing determination of Hill slopes.
For the molecule `CC(C)(C)c1[nH]c2ccccc2c1C1=C(Cl)C(=O)C(c2c[nH]c3c(C(C)(C)C)cccc23)=C(O)C1=O` [8D, 2-(2-tert-butyl-1H-indol-3-yl)-5-(7-tert-butyl-1H-indol-3-yl)-3-chloro-6-hydroxy-[1,4]-benzoquinone], the IC50 (commonly the midpoint of a concentration-inhibition curve) amounted to 5.8 µM.

In the case of `C=CC(C)(C)c1[nH]c2ccccc2c1C1=C(O)C(=O)C(c2c[nH]c3c(CC=C(C)C)cccc23)=C(O)C1=O` [8E, DAQ-B1, reference compound], the IC50 worked out at 0.9 µM.

In the case of `CC(C)(C)c1[nH]c2ccccc2c1C1=C(O)C(=O)C(c2c[nH]c3ccccc23)=C(O)C1=O` [8F, 2-(2-tert-butyl-1H-indol-3-yl)-3,6-dihydroxy-5-(1H-indol-3-yl)-[1,4]-benzoquinone], the IC50 is 11.2 µM.

With `Cn1cc(C2=C(O)C(=O)C(c3c(C(C)(C)C)[nH]c4ccccc34)=C(O)C2=O)c2ccccc21` [8G, 2-(2-tert-butyl-1H-indol-3-yl)-3,6-dihydroxy-5-(1-methyl-1H-indol-3-yl)-[1,4]-benzoquinone], the IC50 was determined as 12 µM.

Take `Cc1[nH]c2ccccc2c1C1=C(O)C(=O)C(c2c(C(C)(C)C)[nH]c3ccccc23)=C(O)C1=O` [8H, 2-(2-tert-butyl-1H-indol-3-yl)-3,6-dihydroxy-5-(2-methyl-1H-indol-3-yl)-[1,4]-benzoquinone]: the IC50 was found to be 5.8 µM.

Turning to `CC(C)(C)c1[nH]c2ccccc2c1C1=C(O)C(=O)C(c2c(C3CC3)[nH]c3ccccc23)=C(O)C1=O` [9A, 2-(2-tert-butyl-1H-indol-3-yl)-3,6-dihydroxy-5-(2-cyclopropyl-1H-indol-3-yl)-[1,4]-benzoquinone], the IC50 worked out at 5.6 µM.

As to `CC(C)c1[nH]c2ccccc2c1C1=C(O)C(=O)C(c2c(C(C)(C)C)[nH]c3ccccc23)=C(O)C1=O` [9B, 2-(2-tert-butyl-1H-indol-3-yl)-3,6-dihydroxy-5-(2-isopropyl-1H-indol-3-yl)-[1,4]-benzoquinone], the IC50 stood at 5 µM.

As to `CC(C)(C)c1[nH]c2ccccc2c1C1=C(O)C(=O)C(c2c(C(C)(C)C)[nH]c3ccccc23)=C(O)C1=O` [9C, 2-(2-tert-butyl-1H-indol-3-yl)-3,6-dihydroxy-5-(2-tert-butyl-1H-indol-3-yl)-[1,4]-benzoquinone], the IC50 amounted to 5.1 µM.

As to `CC(C)(C)c1[nH]c2ccccc2c1C1=C(O)C(=O)C(c2c(-c3ccccc3)[nH]c3ccccc23)=C(O)C1=O` [9D, 2-(2-tert-butyl-1H-indol-3-yl)-3,6-dihydroxy-5-(2-phenyl-1H-indol-3-yl)-[1,4]-benzoquinone], the IC50 was found to be 6.1 µM.

For `COc1cccc2[nH]cc(C3=C(O)C(=O)C(c4c(C(C)(C)C)[nH]c5ccccc45)=C(O)C3=O)c12` [9E, 2-(2-tert-butyl-1H-indol-3-yl)-3,6-dihydroxy-5-(4-methoxy-1H-indol-3-yl)-[1,4]-benzoquinone], the IC50 is 13.7 µM.

Take `CC(C)(C)c1[nH]c2ccccc2c1C1=C(O)C(=O)C(c2c[nH]c3cccc(OCc4ccccc4)c23)=C(O)C1=O` [9F, 2-(2-tert-butyl-1H-indol-3-yl)-3,6-dihydroxy-5-(4-benzyloxy-1H-indol-3-yl)-[1,4]-benzoquinone]: the IC50 came out at 2.3 µM.

With `CC(C)(C)c1[nH]c2ccccc2c1C1=C(O)C(=O)C(c2c[nH]c3ccc(F)cc23)=C(O)C1=O` [9G, 2-(2-tert-butyl-1H-indol-3-yl)-3,6-dihydroxy-5-(5-fluoro-1H-indol-3-yl)-[1,4]-benzoquinone], the IC50 amounted to 8.7 µM.

For `COc1ccc2[nH]cc(C3=C(O)C(=O)C(c4c(C(C)(C)C)[nH]c5ccccc45)=C(O)C3=O)c2c1` [9H, 2-(2-tert-butyl-1H-indol-3-yl)-3,6-dihydroxy-5-(5-methoxyl-1H-indol-3-yl)-[1,4]-benzoquinone], the IC50 turned out to be 80.3 µM.

Turning to `CC(C)(C)c1[nH]c2ccccc2c1C1=C(O)C(=O)C(c2c[nH]c3ccc(OCc4ccccc4)cc23)=C(O)C1=O` [10A, 2-(2-tert-butyl-1H-indol-3-yl)-3,6-dihydroxy-5-(5-benzyloxy-1H-indol-3-yl)-[1,4]-benzoquinone], the IC50 came to 0.6 µM.

For the molecule `Cc1ccc2[nH]cc(C3=C(O)C(=O)C(c4c(C(C)(C)C)[nH]c5ccccc45)=C(O)C3=O)c2c1` [10B, 2-(2-tert-butyl-1H-indol-3-yl)-3,6-dihydroxy-5-(5-methyl-1H-indol-3-yl)-[1,4]-benzoquinone], the IC50 is 7.2 µM.

Consider `CC(C)(C)c1[nH]c2ccccc2c1C1=C(O)C(=O)C(c2c[nH]c3cc(F)ccc23)=C(O)C1=O` [10C, 2-(2-tert-butyl-1H-indol-3-yl)-3,6-dihydroxy-5-(6-fluoro-1H-indol-3-yl)-[1,4]-benzoquinone], for which the IC50 was 5.3 µM.

As to `Cc1ccc2c(C3=C(O)C(=O)C(c4c(C(C)(C)C)[nH]c5ccccc45)=C(O)C3=O)c[nH]c2c1` [10D, 2-(2-tert-butyl-1H-indol-3-yl)-3,6-dihydroxy-5-(6-methyl-1H-indol-3-yl)-[1,4]-benzoquinone], the IC50 was determined as 5.3 µM.

Turning to `Cc1cccc2c(C3=C(O)C(=O)C(c4c(C(C)(C)C)[nH]c5ccccc45)=C(O)C3=O)c[nH]c12` [10E, 2-(2-tert-butyl-1H-indol-3-yl)-3,6-dihydroxy-5-(7-methyl-1H-indol-3-yl)-[1,4]-benzoquinone], the IC50 stood at 4.8 µM.

Turning to `CC(C)(C)c1[nH]c2ccccc2c1C1=C(O)C(=O)C(c2c[nH]c3c(C(C)(C)C)cccc23)=C(O)C1=O` [10F, 2-(2-tert-butyl-1H-indol-3-yl)-3,6-dihydroxy-5-(7-tert-butyl-1H-indol-3-yl)-[1,4]-benzoquinone], the IC50 was determined as 0.9 µM.

With `Cc1ccc2[nH]c(C)c(C3=C(O)C(=O)C(c4c(C(C)(C)C)[nH]c5ccccc45)=C(O)C3=O)c2c1` [10G, 2-(2-tert-butyl-1H-indol-3-yl)-3,6-dihydroxy-5-(2,5-dimethyl-1H-indol-3-yl)-[1,4]-benzoquinone], the IC50 worked out at 14.6 µM.

`COc1ccc2[nH]c(C)c(C3=C(O)C(=O)C(c4c(C(C)(C)C)[nH]c5ccccc45)=C(O)C3=O)c2c1` [10H, 2-(2-tert-butyl-1H-indol-3-yl)-3,6-dihydroxy-5-(2-methyl-5-methoxy-1H-indol-3-yl)-[1,4]-benzoquinone]: the IC50 stood at 11.5 µM.

For `Cc1[nH]c2ccc(Cl)cc2c1C1=C(O)C(=O)C(c2c(C(C)(C)C)[nH]c3ccccc23)=C(O)C1=O` [11A, 2-(2-tert-butyl-1H-indol-3-yl)-3,6-dihydroxy-5-(2-methyl-5-chloro-1H-indol-3-yl)-[1,4]-benzoquinone], the IC50 amounted to 8.4 µM.

Turning to `Cn1cc(C2=C(O)C(=O)C(c3ccccc3)=C(O)C2=O)c2ccccc21` [11B, 2,5-dihydroxy-3-(1-methyl-1H-indol-3-yl)-6-phenyl-[1,4]-benzoquinone], the IC50 is 7.9 µM.

With `Cc1[nH]c2ccccc2c1C1=C(O)C(=O)C(c2c(C)[nH]c3ccccc23)=C(O)C1=O` [11C, 2,5-dihydroxy-3,6-bis(2-methyl-1H-indol-3-yl)l-[1,4]-benzoquinone], the IC50 stood at 15.7 µM.

As for `Cc1[nH]c2ccccc2c1C1=C(O)C(=O)c2cccc(O)c2C1=O` [11D, 2,5-dihydoxy-3-(2-methyl-1H-indol-3-yl)-[1,4]naphthoquinone], the IC50 stood at 18 µM.

On to `CC(C)(C)c1[nH]c2ccccc2c1C1=C(O)C(=O)C(c2c(C(C)(C)C)[nH]c3ccccc23)=C(Cl)C1=O` [11E, 2,5-bis(2-tert-butyl-1H-indol-3-yl)-3-chloro-6-hydroxy-[1,4]-benzoquinone], for which the IC50 stood at 22.9 µM.

For `CC(C)(C)c1[nH]c2ccccc2c1C1=C(Cl)C(=O)C(c2c[nH]c3ccccc23)=C(O)C1=O` [11F, 2-(2-tert-butyl-1H-indol-3-yl)-5-(1H-indol-3-yl)-3-chloro-6-hydroxy-[1,4]-benzoquinone], the IC50 turned out to be 49.9 µM.

As to `Cc1cccc2c(C3=C(O)C(=O)C(c4c(C(C)(C)C)[nH]c5ccccc45)=C(Cl)C3=O)c[nH]c12` [11G, 2-(2-tert-butyl-1H-indol-3-yl)-5-(7-methyl-1H-indol-3-yl)-3-chloro-6-hydroxy-[1,4]-benzoquinone], the IC50 is 33.8 µM.

Regarding `CC(C)(C)c1[nH]c2ccccc2c1C1=C(Cl)C(=O)C(c2c(-c3ccccc3)[nH]c3ccccc23)=C(O)C1=O` [11H, 2-(2-tert-butyl-1H-indol-3-yl)-5-(2-phenyl-1H-indol-3-yl)-3-chloro-6-hydroxy-[1,4]-benzoquinone], the IC50 is 6.7 µM.
